This is an account of results in patent US9062043B2, “Fused tricyclic compounds as serine-threonine protein kinase and PARP modulators” (SENHWA BIOSCIENCES, INC., priority 2006, dated 2015).

Assay type in all cases: cell-based
Test [1] concerns HCT-116 human colorectal carcinoma cells. As to the kind of experiment: Cell proliferation assay, Alamar Blue, HCT-116.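 Note: cells exposed to compound for about 4 days, then Alamar Blue added and fluorescence read after about 4 h, medium-only wells as control.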 A general note: The colour change of resazurin is a common sign of viable cells or microbes.
Test [2] relates to PC-3 human prostatic cancer cells. As to the kind of experiment: Cell proliferation assay, Alamar Blue, PC-3. The settings on record: Table 16, read-out: IC50 PC3. On the procedure: (§1) A representative cell-proliferation assay protocol using Alamar Blue dye (stored at 4° C., use 20 ul per well) is described hereafter.
(§2) c. Plate 4,000-5,000 cells per well in 100 μl of medium and seed into a 96-well plate according to the following plate layout. Add cell culture medium only to wells B10 to B12. Wells B1 to B9 have cells but no compound added.
(§3) d. Add 100 μl of 2× drug dilution to each well in a concentration shown in the plate layout above. At the same time, add 100 μl of media into the control wells (wells B10 to B12). Total volume is 200 μl/well.
(§4) e. Incubate four (4) days at 37° C., 5% CO2 in a humidified incubator.
(§5) f. Add 20 μl Alamar Blue reagent to each well.
(§6) g. Incubate for four (4) hours at 37° C., 5% CO2 in a humidified incubator.
(§7) h. Record fluorescence at an excitation wavelength of 544 nm and emission wavelength of 590 nm using a microplate reader.
(§8) In the assays, cells are cultured with a test compound for approximately four days, the dye then is added to the cells and fluorescence of […] dye is detected after approximately four hours. Different types of cells can be utilized in the assays (e.g., HCT-116 human colorectal carcinoma cells, PC-3 human prostatic cancer cells and MiaPaca human pancreatic carcinoma cells). Anti-proliferative effects of representative compounds are provided hereafter.

The subject of another test is H1299. As to the kind of experiment: Cell proliferation assay, Alamar Blue, H1299. The settings on record: Homo sapiens, NCI-H1299; Table 16. On the procedure:
as §2, §3, §4, §5, §6, §7, §8

The subject of the next test is Hs578T. As to the kind of experiment: Cell proliferation assay, Alamar Blue, Hs578T. As to conditions: Homo sapiens, Hs-578T; Table 16.
The subject of test [3] is MiaPaca human pancreatic carcinoma cells. As to the kind of experiment: Cell proliferation assay, Alamar Blue, MiaPaca. The settings on record: MIA PaCa-2, Table 16. On the procedure: as §1, §2, §3, §4, §5, §6, §7, §8
For another test, the system named is Jurkat. The test can be described thus: Cell proliferation assay, Alamar Blue, Jurkat.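 Note: cells exposed to compound for about 4 days at 37 °C, then Alamar Blue added and fluorescence read after about 4 h, controls given medium without drug.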 The settings on record: Homo sapiens, Table 16.
The subject of a further test is A549. The test can be described thus: Cell proliferation assay, Alamar Blue, A549. As to conditions: Homo sapiens, Table 16. How it is done:
as §2, §3, §4, §5, §6, §7, §8

The next test has as its system BxPC3. The test can be described thus: Cell proliferation assay, Alamar Blue, BxPC3. The settings on record: Homo sapiens, BXPC-3; Table 16. How it is done: as §2, §3, §4, §5, §6, §7, §8
Another test has as its system HT29. The test can be described thus: Cell proliferation assay, Alamar Blue, HT29. As to conditions: Homo sapiens, HT-29; Table 16. On the procedure: as §2, §3, §4, §5, §6, §7, §8
The mark [4] stands for this setting: HCT-116, Table 16, first HCT-116 column.
[5] abbreviates: HCT-116, Table 16, second HCT-116 column.

Some results are limits rather than exact numbers.

Regarding `CN(C)CCNc1nc2cc(C(=O)O)ccc2c2sccc12`, the 50% inhibitory concentration (IC50) in test [1] (setting [4]) was > 10 µM; in test [2] it was > 50 µM; in the test on H1299, 8.9 µM; with Hs578T it was > 50 µM.

For the molecule `O=C(O)c1ccc2c(c1)nc(Nc1ccccc1)c1ccsc12`, the IC50 in test [1] (setting [4]) was > 10 µM; in [1] (setting [5]) it was > 10 µM; in test [3] it was > 10 µM; in test [2] it was 9.09 µM; in the test with Jurkat, 6.12 µM; with H1299, 4.39 µM. In the test with Hs578T, inhibition was half-maximal at 6.38 µM (IC50).

Turning to `c1ccc(Nc2nc3cc(-c4nnn[nH]4)ccc3c3sccc23)cc1`, the IC50 in test [1] (setting [4]) is > 10 µM; in test [2] it was 20 µM; in the test on H1299, 11.7 µM; with Hs578T, 21.8 µM.

Regarding `c1ccc(Nc2nc3cc(-c4nnc[nH]4)ccc3c3sccc23)cc1`, the IC50 came to 14.4 µM in the test on A549; 5 µM in [1] (setting [4]); 7.6 µM in [1] (setting [5]); 7.26 µM in [2]; 1.97 µM in the test on BxPC3; 6.26 µM in the test with Jurkat. The IC50 in the test with H1299 came to 17.8 µM; in the test on Hs578T it was 5.5 µM.

Take `Clc1cccc(Nc2nc3cc(-c4nnn[nH]4)ccc3c3sccc23)c1`: the concentration for half-maximal inhibition (IC50) in [3] is > 10 µM; in test [2], 12 µM; in the test with Jurkat it was 8.89 µM; with H1299 it was 15.2 µM; in the test on Hs578T it was 5.23 µM.

As for `CNC(=O)c1cccc(Nc2nc3cc(-c4nnn[nH]4)ccc3c3sccc23)c1`, the IC50 in test [1] (setting [5]) is > 10 µM; in test [3], > 10 µM; in test [2] it was 2.79 µM; in the test on Jurkat, 4.22 µM; in the test with H1299, 4.01 µM; in the test with Hs578T, 3.01 µM.

`Fc1cccc(Nc2nc3cc(-c4nnn[nH]4)ccc3c3sccc23)c1`: the 50% inhibitory concentration (IC50) in [3] came to 9.55 µM; in test [2], 2.89 µM; with H1299 it was 3.05 µM; in the test with Hs578T it was 3.37 µM.

In the case of `O=C(O)c1ccc2c(c1)nc(Nc1ccccc1)c1ncsc12`, the IC50 with A549 was > 50 µM; in test [1] (setting [5]) it was > 10 µM; in [3], > 10 µM; in test [2], > 50 µM; with Jurkat, 7.43 µM; in the test on H1299, 38.8 µM. For the same molecule, the half-maximal inhibitory concentration (IC50) in the test on Hs578T and with HT29 was > 50 µM each time.

As for `COc1cccc(Nc2nc3cc(C(=O)O)ccc3c3scnc23)c1`, the IC50 with A549 is > 50 µM; in test [1] (setting [5]), > 10 µM; in test [3] it was > 10 µM; in [2] it was > 50 µM; with H1299, 18.5 µM; in the test on Hs578T, > 50 µM. The half-inhibitory concentration (IC50) with HT29 is > 50 µM.

As to `O=C(O)c1ccc2c(c1)nc(Nc1ccc(F)c(Cl)c1)c1ncsc12`, the IC50 with A549 is > 50 µM; in test [1] (setting [5]), 15 µM; in [3], > 10 µM; in test [2], > 50 µM; in the test with Jurkat, 15.2 µM; with H1299, 41.8 µM. For the same molecule, the IC50 with Hs578T was 28.2 µM; in the test on HT29 it was > 50 µM.

With `O=C(O)c1ccc2c(c1)nc(Nc1cccc(F)c1)c1ncsc12`, the IC50 in the test with A549 is > 50 µM; in [1] (setting [5]) it was 15 µM; in test [3], > 10 µM; in [2], > 50 µM; with Jurkat, 40.2 µM; in the test on H1299, 21.6 µM. Moreover, the 50% inhibitory concentration (IC50) in the test on Hs578T and with HT29 was > 50 µM throughout.

`O=C(O)c1ccc2c(c1)nc(Nc1cc(F)cc(F)c1)c1ccsc12`: the IC50 in the test on A549 was 7.45 µM; in [1] (setting [5]), > 10 µM; in test [3] it was 6.36 µM; in [2], 6.11 µM; with Jurkat it was 5.86 µM; with H1299 it was 8.14 µM. Besides, the IC50 in the test with Hs578T was determined as 7.31 µM; with HT29 it was 2 µM.

`O=C(O)c1ccc2c(c1)nc(Nc1cccc(F)c1)c1ccsc12`: the 50% inhibitory concentration (IC50) in the test with A549 was 6.23 µM; in [1] (setting [5]), > 10 µM; in [3], 7.28 µM; in test [2] it was 2.66 µM; in the test on Jurkat, 5.93 µM; in the test on H1299 it was 8.78 µM. The results for the half-maximal inhibitory concentration (IC50) with Hs578T and in the test with HT29 were 8.67 µM and 1.89 µM, respectively.

With `O=C(O)c1ccc2c(c1)nc(Nc1cccc(Cl)c1)c1ccsc12`, the 50% inhibitory concentration (IC50) came out at 11.7 µM with A549; 9.82 µM in test [3]; 16.7 µM in test [2]; 14.3 µM in the test with H1299; 9.7 µM in the test on Hs578T; 5.36 µM with HT29.

With `O=C(O)c1ccc2c(c1)nc(Nc1cc(Cl)ccc1F)c1ccsc12`, the IC50 with A549 is 31.1 µM; in test [1] (setting [5]), > 10 µM; in test [3], > 10 µM; in [2] it was > 50 µM; in the test on H1299, 17.5 µM; in the test on HT29, > 50 µM.

Broadly, the IC50 is the concentration that gives 50% inhibition.
